Test results reported in patent publication US11325917B2, “Thienopyrazine carboxamides as ubiquitin-specific protease inhibitors” (Valo Health, Inc., priority 2016, dated 2022).

Experiments:
USP28 = USP28 (Homo sapiens (Human), UniProt Q96RU2); experiment: Ubiquitin-Rhodamine 110 Assay for USP28 Activity; format: biochemical; conditions: Ub-Rh110 substrate 25 nM
Procedure: Each assay was performed in a final volume of 20 μL in assay buffer containing 20 mM Tris-HCl (pH 8.0, (1M Tris-HCl, pH 8.0 solution; Corning 46-031-CM)), 2 mM CaCl2 (1M Calcium Chloride solution; Sigma #21114) 2 mM BME (2-Mercaptoethanol; Sigma 63689-25ML-F), 0.01% Prionex ([…] filtered, Sigma #G-0411), and 0.01% Triton X-100. Stock compound solutions were stored at −20° C. as 10 mM in DMSO. Up to 1 month prior to the assay, 2 mM test compounds were pre-dispensed into assay plates (Black, low volume; Corning #3820) and frozen at −20° C. Prestamped assay plates were allowed to come to room temperature on the day of the assay. […] Plates were incubated stacked for 90 minutes at room temperature before fluorescence was read on the Envision (Excitation at 485 nm and Emission at 535 nm; Perkin Elmer) or on the PheraSTAR (Excitation at 485 nm and Emission at 535 nm; BMG Labtech).
For follow-up studies, Each assay was performed in a final volume of 15 μL in assay buffer containing 20 mM Tris-HCl (pH 8.0, (1M Tris-HCl, pH 8.0 solution; Corning 46-031-CM)), 3 mM BME (2-Mercaptoethanol; Sigma 63689-25ML-F), 0.03% BGG ([…] filtered, Sigma, G7516-25G), and 0.01% Triton X-100 (Sigma, T9284-10L). […] Fluorescence was read on the Envision (Excitation at 485 nm and Emission at 535 nm; Perkin Elmer) or on the PheraSTAR (Excitation at 485 nm and Emission at 535 nm; BMG Labtech). […]

USP25 = USP25 (Homo sapiens (Human), UniProt Q9UHP3); experiment: Ubiquitin-Rhodamine 110 Assay for USP25 Activity; format: biochemical; conditions: Ub-Rh110 substrate 25 nM
Chain of USP25 (Q9UHP3 whole entry): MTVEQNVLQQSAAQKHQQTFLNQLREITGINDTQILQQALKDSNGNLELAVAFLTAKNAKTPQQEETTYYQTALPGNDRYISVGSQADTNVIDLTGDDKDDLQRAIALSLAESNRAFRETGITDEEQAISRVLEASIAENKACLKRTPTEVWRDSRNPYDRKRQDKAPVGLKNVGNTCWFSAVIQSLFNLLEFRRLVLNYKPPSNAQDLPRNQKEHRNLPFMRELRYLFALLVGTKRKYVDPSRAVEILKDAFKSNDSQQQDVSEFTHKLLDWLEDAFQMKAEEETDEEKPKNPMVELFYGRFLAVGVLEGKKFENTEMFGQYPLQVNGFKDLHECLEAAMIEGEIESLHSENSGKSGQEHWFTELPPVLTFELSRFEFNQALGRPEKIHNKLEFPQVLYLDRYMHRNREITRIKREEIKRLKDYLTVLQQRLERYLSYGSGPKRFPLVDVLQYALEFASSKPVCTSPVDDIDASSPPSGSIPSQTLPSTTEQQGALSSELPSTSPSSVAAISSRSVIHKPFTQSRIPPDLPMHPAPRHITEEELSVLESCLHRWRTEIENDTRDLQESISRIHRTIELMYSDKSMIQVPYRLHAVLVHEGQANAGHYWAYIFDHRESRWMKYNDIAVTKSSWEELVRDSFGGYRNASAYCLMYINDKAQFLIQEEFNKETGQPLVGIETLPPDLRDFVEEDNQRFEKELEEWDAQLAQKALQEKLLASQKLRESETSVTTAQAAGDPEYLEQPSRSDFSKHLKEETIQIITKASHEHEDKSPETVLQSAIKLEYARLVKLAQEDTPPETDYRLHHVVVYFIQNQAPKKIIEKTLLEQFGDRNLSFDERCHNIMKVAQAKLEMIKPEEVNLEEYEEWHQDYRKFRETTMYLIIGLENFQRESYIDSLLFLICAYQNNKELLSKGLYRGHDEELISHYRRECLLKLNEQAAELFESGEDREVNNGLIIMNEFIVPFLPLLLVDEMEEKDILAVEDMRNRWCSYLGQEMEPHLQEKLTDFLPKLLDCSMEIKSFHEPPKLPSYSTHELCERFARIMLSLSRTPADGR
Procedure: The assay was performed in a final volume of 9 μL in assay buffer containing 20 mM Tris-HCl (pH 8.0, (1M Tris-HCl, pH 8.0 solution; Corning 46-031-CM)), 3 mM BME (2-Mercaptoethanol; Sigma 63689-25ML-F), 0.03% BGG (0.22 μM filtered, Sigma, G7516-25G), and 0.01% Triton X-100 (Sigma, T9284-10L). Nanoliter quantities of 10-point, 3-fold serial dilution in DMSO was pre-dispensed into 1536 assay plates (Corning, #3724BC) for a final test concentration of 25 μM to 1.3 nM, top to lowest dose, respectively. Enzyme USP25, construct USP25-His6, (Boston Biochem E-546). […] Fluorescence was read on the Envision (Excitation at 485 nm and Emission at 535 nm; Perkin Elmer) or on the PheraSTAR (Excitation at 485 nm and Emission at 535 nm; BMG Labtech).
For both the USP28 and USP25 assay formats Data were reported as percent inhibition compared with control wells based on the following equation: % inh=1−((FLU−AveLow)/(AveHigh−AveLow)) where FLU=measured Fluorescence, AveLow=average Fluorescence of no enzyme control (n=16), and AveHigh=average Fluorescence of DMSO control (n=16). IC50 values were determined by curve fitting of the standard 4 parameter logistic fitting algorithm included in the Activity Base software package: IDBS XE Designer Model205. […]

Chain of USP28 (Q96RU2 whole entry): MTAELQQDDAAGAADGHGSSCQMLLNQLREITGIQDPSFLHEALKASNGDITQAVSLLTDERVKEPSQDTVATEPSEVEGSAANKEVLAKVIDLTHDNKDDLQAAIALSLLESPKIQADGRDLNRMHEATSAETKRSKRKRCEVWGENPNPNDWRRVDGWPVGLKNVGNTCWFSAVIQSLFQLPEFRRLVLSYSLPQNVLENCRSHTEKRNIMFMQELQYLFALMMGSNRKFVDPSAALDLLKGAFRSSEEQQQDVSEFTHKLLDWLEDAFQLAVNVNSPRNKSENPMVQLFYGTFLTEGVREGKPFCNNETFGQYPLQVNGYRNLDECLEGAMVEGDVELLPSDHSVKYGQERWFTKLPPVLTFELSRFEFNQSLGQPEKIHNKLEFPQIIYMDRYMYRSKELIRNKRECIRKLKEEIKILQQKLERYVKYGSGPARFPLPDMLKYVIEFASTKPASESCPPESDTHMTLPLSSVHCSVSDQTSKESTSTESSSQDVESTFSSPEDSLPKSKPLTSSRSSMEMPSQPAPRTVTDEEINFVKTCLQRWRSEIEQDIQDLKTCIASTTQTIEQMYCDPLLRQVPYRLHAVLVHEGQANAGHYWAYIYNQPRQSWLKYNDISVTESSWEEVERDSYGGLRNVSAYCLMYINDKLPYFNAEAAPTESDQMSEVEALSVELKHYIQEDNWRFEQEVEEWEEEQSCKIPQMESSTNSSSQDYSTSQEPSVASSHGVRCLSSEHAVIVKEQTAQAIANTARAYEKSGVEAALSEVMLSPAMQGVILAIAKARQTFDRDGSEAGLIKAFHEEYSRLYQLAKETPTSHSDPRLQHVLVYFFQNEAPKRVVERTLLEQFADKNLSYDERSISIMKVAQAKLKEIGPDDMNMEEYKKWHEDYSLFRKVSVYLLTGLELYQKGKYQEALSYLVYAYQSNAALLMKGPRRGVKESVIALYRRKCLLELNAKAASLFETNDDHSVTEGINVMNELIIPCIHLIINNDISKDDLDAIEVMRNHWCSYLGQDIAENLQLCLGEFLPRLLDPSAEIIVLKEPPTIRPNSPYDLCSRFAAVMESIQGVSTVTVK

Cc1cnc2c(N)c(C(=O)NCCc3cc(F)c(N4CC5CNCC(C4)O5)cc3F)sc2n1 [Compound I-20]
IC50 (USP28): < 200 nM | IC50 (USP25): < 200 nM
